# Where a name gives a salt, the structure may show the parent alone. Read-outs that look alike come from different tables or passages of the source.
# Columns and labels:
# [1] = target: T1, Human Serotonin Transporter (h5HT-T) (Homo sapiens, UniProt P31645); assay: biochemical
# Description: (§1) MEDIA REAGENTS: Dulbecco's Modified Eagle Medium (DMEM) with High Glucose, L-Glutamine, 110 mg/L Sodium Pyruvate, Pyridoxine Hydrochloride containing: • a) 10% Fetal Bovine Serum, Heat-inactivated and Dialyzed (10,000 Mol Wt.) • b) 1% Pennicilin-streptomycin • c) 100 μg/ml Geneticin/G418 • 2. […] Immediately add 15 ml Cell Culture medium to inactivate trypsin and mix well. […] (eg. 1×T175 flask can seed 20×T175 flasks) • g) Incubate cells at 37° C., 5% CO2, in a humidified incubator. NOTE: Cells will grow to confluence within 3-4 days.
# (§2) Cells are resuspended in 3 volumes of 50 mM Tris-HC1 (pH 7.4) to 1 volume of initial cell fraction • 2. Partially homogenize cells by swirling or by using transfer pipetor to make cell solution more homogenous and aliquot solution into 4 clear 50 ml polypropylene centrifuge tubes • 3. Tubes are balanced and spun down at 2,000 rpm for 10 minutes at 4° C. using the HS-4 rotor (rotor code 8) • 4. Supernatant is decanted and pellets resuspend in an additional 75 ml of 50 mM Tris-HCl (pH 7.4)→˜18 ml Tris to each of 4 tubes • 5. Spin cells again at 5, 000 rpm for minutes at 4° C. using the HS-4 rotor and decant supernatant • 6. Resuspend final pellts in appropriate volume of 50 nM Tris to yield protein concentration of ˜6 mg/ml • add 100 ml Tris to original cell suspension of 35 ml • add ˜72 ml; Tris to original cell suspension of 25 ml • 7. Add the appropriate final volume and split the cells into two/three 50 ml Falcon polypropylene tubes. Thoroughly vortex your cell suspension in these tubes to ensure homogeneity before aliquoting. • 8. Pool the samples from the 50 nl tubes into one larger flat-bottom vessel and stir constantly on ice (4° C.). • 9. While stirring, aliquot 1 ml portions out into 1.5 ml cryogenic vials. • 10. Store vials at −70° C. until subsequtn asay. Retain one aliquot for protein concentration, Kd and Bmax determination before starting experiments using new batch of cells. Proetin concentration is determined using the Lowry method.
# (§3) Required buffers: • Assay buffer; 50 mM Tris HCl, 120 mM NaCl and 5 mM KCl, pH 7.4 • 2. Binding protocol: Preliminary screening assays are performed using single replicates on duplicate plates. Dose-response binding assays are performed in a single replicates on duplicate OptiPlates (Perkin Elmer) using 0.1 nM to 3 μM of test drug.
# (§4) a) To each well add 10 μL of test compound, blank compound (10 μM Fluoxetine), or assay buffer (50 mM Tris HCl, 120 mM NaCl and 5 mM KCl, pH 7.4. Each well is then supplemented with 40 μL of assay buffer.
# (§5) The isotope solution is also disuted in 50 mM Tris HCl, 120 mM NaCl and 5 mM KCl, pH 7.4 • c) Resuspend membrane pellet in binding buffer to achieve a solution containing 5 μg of protein in 50 μL. This will yield a final protein concentration of 5 μg/well. • d) To each well add 0.5 mg of Wheatgerm Agglutinin (WGA) SPA beads in 50 μl of 50 mM Tris HCl, 120 mM NaCl and 5 mM KCl, pH 7.4 • e) Incubate plates, while gently shaking, for at least 1 hour so as to reach equilibrium. Plates can still be read if left to incubate overnight without loss of signal. • f) Count plates on TopCount.
# (§6) 3H-Citallopram binding is expressed as percent of specific binding, with IC50 and Ki VALUES DETERMINED BY nonlinear regression analysis using the Activity Base software package. Specific binding is defined as total binding observed in the presence of 10 μM fluoxetine.
# h-5HT1A = target: T2, h-5HT1A (Homo sapiens, UniProt P08908); assay: 5HT1A receptor SPA binding assay, [3H]-OH DPAT, CHO cell membranes; conditions: [3H]-OH DPAT 3 nM
# T2 construct: expressed in transfected cells; host or cells: CHO cells grown in suspension in a 10 liter bioreactor
# T2 sequence (P08908 1-422): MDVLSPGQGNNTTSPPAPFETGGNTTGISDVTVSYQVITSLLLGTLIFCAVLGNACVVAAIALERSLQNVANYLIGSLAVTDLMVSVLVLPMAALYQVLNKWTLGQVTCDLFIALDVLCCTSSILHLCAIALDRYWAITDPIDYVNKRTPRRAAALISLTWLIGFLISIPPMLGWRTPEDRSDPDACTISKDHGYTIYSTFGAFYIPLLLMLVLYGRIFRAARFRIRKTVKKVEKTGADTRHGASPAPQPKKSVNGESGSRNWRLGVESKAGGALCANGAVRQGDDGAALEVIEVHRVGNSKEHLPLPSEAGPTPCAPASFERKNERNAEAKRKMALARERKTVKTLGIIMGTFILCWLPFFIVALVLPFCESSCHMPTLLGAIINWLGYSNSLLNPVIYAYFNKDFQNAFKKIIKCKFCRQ
# Description: Determination of the Inhibitory Activity of Compounds at the Serotonin 5HT1A Receptor Subtype using Scintillation Proximity Assay (SPA) Technology
# Cells: CHO cells expressing the serotonin 5HT1A receptor subtype were grown in suspension in 10 liter bioreactor and supplied as a wet cell pellet
# Binding experiments are performed in a total volume of 200 μl using a 96 well microtiter plate format (Packard Optiplate). On the day of the assay, the membranes are thawed and resuspended with enough 50 mM Tris (HCI) pH 7.5, 10 mM MgCl2, 0.2 mM EDTA, 10 μM pargyline, and 0.1% ascorbate (assay buffer) to achieve a protein concentration of 800 μg/ml. To each well of the microtiter plate, 20 μl of 10× test compound in water containing 3.3% DMSO, 3 nM of [3H]-OH DPAT (Amersham, SA: 200 Ci/mmol), 80 μg cell membrane and assay buffer are combined to achieve a volume of 150 μl. Assay buffer and 10 μM cold 5-HT are substituted for the test compound in separate wells to define ‘total’ and ‘nonspecific’ bindings, respectively. The incubation period is initiated by the addition of 50 μl of 10 mg/ml PVT WGA SPA beads (RPNQ0060, Amersham GE Healthcare) resuspended in assay buffer for a final concentration of 0.5 mg/well. The plates are sealed and gently shaken at room temperature using an orbital shaker (setting 1.5) until equilibrium is achieved (2 h-overnight incubation). Radioactivity (CPM) is measured by Packard TopCount (1 min counting time/well).
# Specific binding is described as the total radioactivity bound less the amount bound in the presence of 10 μM 5HT, referred to as non-specific binding (NSB). Binding in the presence of varying concentrations of test compounds is expressed as percent of specific binding in the absence of compound.
# {(Bound−NSB)/(Total−NSB)}×100=% Total
# Regression analysis of % bound data from ten concentrations is performed in GraphPad Prism, XL Fit or equivalent software. IC50 values are calculated using a four-parameter logistic curve fitting model and Ki values are calculated by the Cheng-Prusoff equation below: […]
# where L is the nM concentration of the radioactive ligand used and the Kd is the dissociation constant of the ligand for the receptor. The Kd for [3H-OH DPAT in the SPA binding format is 3 nM. • Single dose
# Percent inhibition: The displacement of […] by the test compound at h5-HT1A as determined by: [(Total DPM−compound DPM)/(Total DPM−NSB DPM)]×100. • Conc.: concentration of test compound; NBS: non-specific binding; DPM: disintegrations per min
# [2] = target: T1, Human Serotonin Transporter (h5HT-T); conditions: read-out: human SERT SPA binding assay Ki
# Description: as §1, §2, §3, §4, §5, §6
# human 5HT1A receptors = target: T3, human 5HT1A receptors (Homo sapiens, UniProt P08908); assay: Displacement of [3H] 8-OH-DPAT from 5HT1A receptor, CHO cells stably transfected with human 5HT1A receptors; assay type: binding; conditions: [3H] 8-OH-DPAT displacement, CHO cells with human 5HT1A; read-out: 5HT1A Receptor Affinity Ki
# T3 construct: expressed in transfected cells; host or cells: CHO cells
# T3 sequence (P08908 1-422): T2 sequence (P08908 1-422)
# Description: High affinity for the serotonin 5HT1A receptor was established by testing the claimed compound's ability to displace [^3H] 8-OH-DPAT (dipropylamino-tetralin) from the 5HT1A serotonin receptor following a modification of the procedure of Hall et al., J. Neurochem. 44, 1685 (1985) which utilizes CHO cells stably transfected with human 5HT1A receptors.
# [3] = target: T4, cloned human 5HT1A receptors (Homo sapiens, UniProt P08908); assay: 35S-GTPγS binding assay, agonist/antagonist activity at 5HT1A receptors; assay type: biochemical
# T4 construct: expressed in transfected cells
# T4 sequence (P08908 1-422): T2 sequence (P08908 1-422)
# Description: Determination of […] or Antagonist Activity at 5HT1A Receptors
# […] or antagonist activity at 5HT1A receptors was established by using a ^35S-GTPγS binding assay similar to that used by Lazareno and Birdsall (Br. J. Pharmacol. 109: 1120, 1993), in which the test compound's ability to affect the binding of ^35S-GTPγS to membranes containing cloned human 5HT1A receptors was determined. Agonists produce an increase in binding whereas antagonists produce no increase but rather reverse the effects of the standard agonist 8-OH-DPAT. The test compound's maximum inhibitory effect is represented as the Imax, while its potency is defined by the IC50. The results of the three standard experimental test procedures described in the preceding three paragraphs were as follows: […]
# serotonin transporter = target: T5, serotonin transporter (Rattus norvegicus, UniProt P31652); assay: Displacement of 3H-paroxetine from male rat frontal cortical membranes (serotonin transporter affinity); assay type: binding; conditions: 3H-paroxetine displacement, read-out: 5-HT Transporter Affinity Ki
# T5 construct: displace ^3H-paroxetine from male rat frontal cortical membranes; from tissue; host or cells: male rat frontal cortex membranes
# T5 sequence (P31652 whole entry): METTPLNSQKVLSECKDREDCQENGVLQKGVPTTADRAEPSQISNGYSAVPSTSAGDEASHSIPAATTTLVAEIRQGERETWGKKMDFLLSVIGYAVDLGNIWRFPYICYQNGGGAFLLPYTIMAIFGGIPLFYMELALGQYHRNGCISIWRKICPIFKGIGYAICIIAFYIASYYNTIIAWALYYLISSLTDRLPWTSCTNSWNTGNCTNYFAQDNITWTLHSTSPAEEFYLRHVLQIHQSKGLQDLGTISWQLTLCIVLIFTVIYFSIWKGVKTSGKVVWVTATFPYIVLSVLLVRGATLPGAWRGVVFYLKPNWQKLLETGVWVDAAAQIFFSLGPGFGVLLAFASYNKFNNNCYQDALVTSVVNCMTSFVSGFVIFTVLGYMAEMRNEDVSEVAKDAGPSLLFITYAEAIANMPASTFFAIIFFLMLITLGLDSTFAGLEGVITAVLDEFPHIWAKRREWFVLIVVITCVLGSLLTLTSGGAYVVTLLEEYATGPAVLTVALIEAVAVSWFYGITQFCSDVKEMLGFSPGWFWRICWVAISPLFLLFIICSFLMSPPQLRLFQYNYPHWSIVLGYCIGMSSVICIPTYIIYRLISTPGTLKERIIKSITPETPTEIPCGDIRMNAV
# Description: Affinity of Compounds of the Invention for the Serotonin Transporter
# T1 sequence (P31645 whole entry): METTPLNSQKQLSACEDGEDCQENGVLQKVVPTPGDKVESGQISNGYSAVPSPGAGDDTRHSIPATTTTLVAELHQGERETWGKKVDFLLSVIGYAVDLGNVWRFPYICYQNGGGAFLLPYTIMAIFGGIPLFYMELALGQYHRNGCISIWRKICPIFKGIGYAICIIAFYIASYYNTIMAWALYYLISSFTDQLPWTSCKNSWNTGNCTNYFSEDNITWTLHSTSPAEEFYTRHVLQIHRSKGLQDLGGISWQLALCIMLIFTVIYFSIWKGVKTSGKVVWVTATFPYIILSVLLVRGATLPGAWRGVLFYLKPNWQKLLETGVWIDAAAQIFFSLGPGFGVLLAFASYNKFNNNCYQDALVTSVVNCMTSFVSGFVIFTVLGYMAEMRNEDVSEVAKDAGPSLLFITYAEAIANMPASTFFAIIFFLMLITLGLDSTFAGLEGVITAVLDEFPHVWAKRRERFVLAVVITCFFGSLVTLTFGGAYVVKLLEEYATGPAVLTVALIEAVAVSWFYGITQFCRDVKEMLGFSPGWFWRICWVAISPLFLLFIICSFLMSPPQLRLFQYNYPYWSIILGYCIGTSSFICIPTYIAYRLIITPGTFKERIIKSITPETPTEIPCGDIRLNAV
Compound,Ki [1] [nM],Ki (h-5HT1A) [nM],other results
"Cc1ccc2c3c(ccc2n1)OC[C@H](CN1CCC[C@H](Oc2ccc4c(c2)NC(=O)CO4)C1)O3 [Example 26, 6-{[(3S)-1-{[(2S)-8-Methyl-2,3-dihydro[1,4]dioxino[2,3-f]quinolin-2-yl]methyl}piperidin-3-yl]oxy}-2H-1,4-benzoxazin-3(4H)-one]",376,361,
"Cc1ccc2c3c(ccc2n1)OC[C@H](CN1CCC(Cc2ccc4c(c2)NC(=O)CC4)CC1)O3 [Example 20, 7-[(1-{[(2S)-8-Methyl-2,3-dihydro[1,4]dioxino[2,3-f]quinolin-2yl]methyl}piperidin-4-yl)methyl]-3,4-dihydroquinolin-2(1H)-one]",5.88,1.15,
"8-Fluoro-6-[(1-{[(2S)-8-methyl-2,3-dihydro[1,4]dioxino[2,3-f]quinolin-2-yl]methyl}piperidin-4-yl)methyl]-2H-1,4-benzoxazin-3(4H)-one [Example 21a]",,15.5,Ki [2]: 68.2 nM
"Cc1ccc2c3c(ccc2n1)OC[C@H](CN1C2CCC1CC(Cc1ccc4c(c1)NC(=O)CC4)C2)O3 (stereo partly drawn) [Example 23, 7-[(8-{[(2S)-8-Methyl-2,3-dihydro[1,4]dioxino[2,3-f]quinolin-2-yl]methyl}-8-azabicyclo[3.2.1]oct-3-yl)methyl]-3,4-dihydroquinolin-2(1H)-one]",12.4,2.42,
"Cc1ccc2c3c(ccc2n1)OC[C@H](CN1CCCC(Cc2ccc4c(c2)NC(=O)CC4)C1)O3 (stereo partly drawn) [Example 24, 7-[(1-{[(2S)-8-Methyl-2,3-dihydro[1,4]dioxino[2,3-f]quinolin-2-yl]methyl}piperidin-3-yl)methyl]-3,4-dihydroquinolin-2(1H)-one]",9.77,2.33,
"8-Fluoro-6-[(1-{[(2S)-8-methyl-2,3-dihydro[1,4]dioxino[2,3-f]quinolin-2-yl]methyl}piperidin-4-yl)methyl]-2H-1,4-benzoxazin-3(4H)-one [Example 21b]",,1.12,Ki [2]: 1.74 nM
"Cc1ccc2c3c(ccc2n1)OC[C@H](CN1CCC[C@@H](Oc2ccc4c(c2)NC(=O)CO4)C1)O3 [Example 25, 6-{[(3R)-1-{[(2S)-8-Methyl-2,3-dihydro[1,4]dioxino[2,3-f]quinolin-2-yl]methyl}piperidin-3-yl]oxy}-2H-1,4-benzoxazin-3(4H)-one]",146,13.8,
"Cc1ccc2c3c(ccc2n1)OC[C@H](CN1CCC(Oc2ccc4c(c2)NC(=O)CO4)CC1)O3 [Example 1, 6-[(1-{[(2S)-8-methyl-2,3-dihydro[1,4]dioxino[2,3-f]quinolin-2-yl]methyl}piperidin-4-yl)oxy]-2H-1,4-benzoxazin-3(4H)-one dihydrochloride salt]",,,"Ki (human 5HT1A receptors): 0.26 nM; IC50 ([3]; reversal of 8-OH-DPAT effect, read-out: 5HT1A Function IC50): 59.3 nM; 5HT1A Function Imax (maximum inhibitory effect) ([3]; value in parentheses): 97; Ki (serotonin transporter): 9.5 nM"

# From patent US20090042874A1, “ANTIDEPRESSANT HETEROARYL DERIVATIVES OF HETEROCYCLE-FUSED BENZODIOXANS” (WYETH, priority 2007, published 2009)
